The target in this test is T1, prostanoid EP3 receptors (Homo sapiens, UniProt P43115).
T1 sequence (P43115 1-390): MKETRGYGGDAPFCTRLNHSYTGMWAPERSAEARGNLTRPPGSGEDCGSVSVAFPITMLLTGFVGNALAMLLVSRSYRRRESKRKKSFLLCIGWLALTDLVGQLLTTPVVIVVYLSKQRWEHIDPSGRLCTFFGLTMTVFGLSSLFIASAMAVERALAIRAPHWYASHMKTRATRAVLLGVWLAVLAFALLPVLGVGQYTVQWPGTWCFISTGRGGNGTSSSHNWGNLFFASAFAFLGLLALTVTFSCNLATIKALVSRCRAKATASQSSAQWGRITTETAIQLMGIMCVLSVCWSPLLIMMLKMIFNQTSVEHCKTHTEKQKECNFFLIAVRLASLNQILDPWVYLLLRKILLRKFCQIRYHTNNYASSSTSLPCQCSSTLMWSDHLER
Put plainly: binding on prostanoid EP3 receptors (method of Abramovitz et al.). The following applies: Chart 1, read-out: Activity (EP3 receptor binding IC50 class). How it is done: The compounds of the invention were assayed for their binding on prostanoid EP3 receptors according to the method of Abramovitz et al. [Bioch. Biophys. Acta, 1473, 285-293 (2000)]. […] Compounds with IC50<1 μM are shown as +++; compounds with IC50 1-10 μM are shown as ++; and compounds with IC50>10 μM are shown as +.
The compounds of the invention were assayed for their binding on prostanoid EP3 receptors according to the method of Abramovitz et al. [Bioch. Biophys. Acta. 1473, 285-293 (2000)]. […] Compounds with IC50<1 μM are shown as +++; compounds with IC50 1-10 μM are shown as ++; and compounds with IC50>10 μM are shown as +.

SMILES strings stand for the structures. Bounds are passed on as bounds.

One may read the IC50 as the concentration needed to halve the response being measured. For the compound `O=C(O)CCc1csc2ncc(C=Cc3ccc4ccccc4c3)n12` (mixture of isomers) [Compound A23, 3-[5-((E)-2-Naphthalen-2-yl-vinyl)-imidazo[2,1-b]thiazol-3-yl]-propionic acid], the IC50 was in the range of 1000 to 10000 nM.

On to `O=C(O)/C=C/c1cnn2ccn(Cc3ccc4ccccc4c3)c12` [Compound A02, (E)-3-(1-Naphthalen-2-ylmethyl-1H-imidazo[1,2-b]pyrazol-7-yl)-acrylic acid], for which the IC50 fell in the range of 1000 to 10000 nM.

As for `O=C(O)COc1cccc2oc(=O)n(Cc3ccc4ccccc4c3)c12` [Compound A04, (3-Naphthalen-2-ylmethyl-2-oxo-2,3-dihydro-benzooxazol-4-yloxy)-acetic acid], the IC50 lay within 1000 to 10000 nM.

In the case of `O=C(O)COc1cccc2oc(=O)n(Cc3ccc4c(c3)OCO4)c12` [Compound A05, (3-Benzo[1,3]dioxol-5-ylmethyl-2-oxo-2,3-dihydro-benzooxazol-4-yloxy)-acetic acid], the IC50 fell in the range of 1000 to 10000 nM.

On to `O=C(O)COc1cccc2oc(=O)n(Cc3ccc(Cl)c(Cl)c3)c12` [Compound A06, [3-(3,4-Dichloro-benzyl)-2-oxo-2,3-dihydro-benzooxazol-4-yloxy]-acetic acid], for which the IC50 was in the range of 1000 to 10000 nM.

As to `O=C(O)COc1cccc2oc(=O)n(Cc3ccc(Cl)cc3Cl)c12` [Compound A07], the IC50 fell in the range of 1000 to 10000 nM.

For `Cc1ccc(C)c(Cn2c(=O)oc3cccc(OCC(=O)O)c32)c1` [Compound A08, [3-(2,5-Dimethyl-benzyl)-2-oxo-2,3-dihydro-benzooxazol-4-yloxy]-acetic acid], the IC50 was in the range of 1000 to 10000 nM.

`Cc1cn(Cc2ccc(Cl)cc2Cl)c2c(/C=C/C(=O)O)cccc12` [Compound A09, (E)-3-[1-(2,4-Dichloro-benzyl)-3-methyl-1H-indol-7-yl]-acrylic acid]: the IC50 is below 1000 nM.

On to `O=C(O)/C=C/c1cccc2c(CO)cn(Cc3ccc(Cl)cc3Cl)c12` [Compound A10, (E)-3-[1-(2,4-Dichloro-benzyl)-3-hydroxymethyl-1H-indol-7-yl]-acrylic acid], for which the IC50 lay in the range of 1000 to 10000 nM.

Turning to `O=Cc1cn(Cc2ccc(Cl)cc2Cl)c2c(/C=C/C(=O)O)cccc12` [Compound A11, (E)-3-[1-(2,4-Dichloro-benzyl)-3-formyl-1H-indol-7-yl]-acrylic acid], the IC50 was below 1000 nM.

For the compound `COCc1cn(Cc2ccc(Cl)cc2Cl)c2c(/C=C/C(=O)O)cccc12` [Compound A12, (E)-3-[1-(2,4-Dichloro-benzyl)-3-methoxymethyl-1H-indol-7-yl]-acrylic acid], the IC50 is below 1000 nM.

With `CC(=O)c1cn(Cc2ccc(Cl)cc2Cl)c2c(/C=C/C(=O)O)cccc12` [Compound A13, (E)-3-[3-Acetyl-1-(2,4-dichloro-benzyl)-1H-indol-7-yl]-acrylic acid], the half-maximal inhibitory concentration (IC50) was 1000 to 10000 nM.

Take `CC(C)c1cn(Cc2ccc(Cl)cc2Cl)c2c(CCC(=O)O)cccc12` [Compound A14]: the concentration for half-maximal inhibition (IC50) fell in the range of 1000 to 10000 nM.

As to `O=C(O)C=Cc1cccc2c1N(Cc1ccc3ccccc3c1)C(=O)C2(O)C(F)(F)F` (stereo not shown) [Compound A15, 3-(3-Hydroxy-1-naphthalen-2-ylmethyl-2-oxo-3-trifluoromethyl-2,3-dihydro-1H-indol-7-yl)-acrylic acid], the IC50 lay in the range of 1000 to 10000 nM.

On to `O=C(O)C=Cc1cccc2c1N(Cc1ccc(Cl)cc1Cl)C(=O)C21OCCO1` [Compound A16], for which the half-inhibitory concentration (IC50) is below 1000 nM.

As to `O=C(O)/C=C/c1cccc2c1N(Cc1ccc(Cl)cc1Cl)C(=O)C2=O` [Compound A17, (E)-3-[1-(2,4-Dichloro-benzyl)-2,3-dioxo-2,3-dihydro-1H-indol-7-yl]-acrylic acid], the IC50 is 1000 to 10000 nM.

`CC1(C)C(=O)N(Cc2ccc(Cl)cc2Cl)c2c(/C=C/C(=O)O)cccc21` [Compound A19, (E)-3-[1-(2,4-Dichloro-benzyl)-3,3-dimethyl-2-oxo-2,3-dihydro-1H-indol-7-yl]-acrylic acid]: the IC50 fell in the range of 1000 to 10000 nM.

In the case of `O=C(O)/C=C/c1cccc2c1N(Cc1ccc(Cl)cc1Cl)C(=O)C2(F)F` [Compound A20, (E)-3-[1-(2,4-Dichloro-benzyl)-3,3-difluoro-2-oxo-2,3-dihydro-1H-indol-7-yl]-acrylic acid], the half-inhibitory concentration (IC50) lay within 1000 to 10000 nM.

Regarding `O=C(O)COc1cccc2ncn(Cc3ccc(Cl)cc3Cl)c12` [Compound A21, [3-(2,4-Dichloro-benzyl)-3H-benzoimidazol-4-yloxy]-acetic acid], the IC50 is below 1000 nM.

For the compound `O=C(O)COc1cccc2ncn(Cc3ccc4ccccc4c3)c12` [Compound A22, (3-Naphthalen-2-ylmethyl-3H-benzoimidazol-4-yloxy)-acetic acid], the IC50 is above 10000 nM.

Turning to `CC12CCCC(/C=C/C(=O)O)=C1N(Cc1ccc3ccccc3c1)C(=O)C2` (stereo not shown) [Compound A24, (E)-3-(3a-Methyl-1-naphthalen-2-ylmethyl-2-oxo-2,3,3a,4,5,6-hexahydro-1H-indol-7-yl)-acrylic acid], the IC50 lay within 1000 to 10000 nM.

As to `Cn1nc(NCC(=O)O)c2c(Oc3ccc4ccccc4c3)cccc21` [Compound A25, [1-Methyl-4-(naphthalen-2-yloxy)-1H-indazol-3-ylamino]-acetic acid], the IC50 is below 1000 nM.

With `Cn1nc(NC(=O)c2ccc3ccccc3c2)c2c(/C=C/C(=O)O)cccc21` [Compound A26, (E)-3-{1-Methyl-3-[(naphthalene-2-carbonyl)-amino]-1H-indazol-4-yl}-acrylic acid], the IC50 lay within 1000 to 10000 nM.

For `CC12CCCC(/C=C/C(=O)O)=C1N(Cc1cccc(F)c1)C(=O)C2` (stereo not shown) [Compound A27, (E)-3-[1-(3-Fluoro-benzyl)-3a-methyl-2-oxo-2,3,3a,4,5,6-hexahydro-1H-indol-7-yl]-acrylic acid], the half-inhibitory concentration (IC50) was below 1000 nM.

Consider `CC12CCCC(/C=C/C(=O)O)=C1N(Cc1ccc(F)cc1)C(=O)C2` (stereo not shown) [Compound A28, (E)-3-[1-(4-Fluoro-benzyl)-3a-methyl-2-oxo-2,3,3a,4,5,6-hexahydro-1H-indol-7-yl]-acrylic acid], for which the IC50 is below 1000 nM.

As for `COc1cccc(CN2C(=O)CC3(C)CCCC(/C=C/C(=O)O)=C23)c1` (stereo not shown) [Compound A29, (E)-3-[1-(3-Methoxy-benzyl)-3a-methyl-2-oxo-2,3,3a,4,5,6-hexahydro-1H-indol-7-yl]-acrylic acid], the IC50 is below 1000 nM.

For the compound `CC12CCCC(/C=C/C(=O)O)=C1N(Cc1ccc(F)c(F)c1)C(=O)C2` (stereo not shown) [Compound A30, (E)-3-[1-(3,4-Difluoro-benzyl)-3a-methyl-2-oxo-2,3,3a,4,5,6-hexahydro-1H-indol-7-yl]-acrylic acid], the IC50 is 1000 to 10000 nM.

For the compound `Cc1cn(Cc2ccc(Cl)cc2Cl)c2c(/C=C/C(=O)O)cc(F)cc12` [Compound A31, (E)-3-[1-(2,4-dichloro-benzyl)-5-fluoro-3-methyl-1H-indol-7-yl]-acrylic acid], the concentration for half-maximal inhibition (IC50) is below 1000 nM.

Regarding `CC12CCCC(/C=C/C(=O)O)=C1N(Cc1ccc(Cl)cc1Cl)C(=O)C2` (stereo not shown) [Compound A32, (E)-3-[1-(2,4-Dichloro-benzyl)-3a-methyl-2-oxo-2,3,3a,4,5,6-hexahydro-1H-indol-7-yl]-acrylic acid], the IC50 is below 1000 nM.

As for `CN1C(=O)C(C(=O)Nc2ccc(Cl)cc2Cl)c2c(/C=C/C(=O)O)cccc21` (stereo not shown) [Compound A33, (E)-3-[3-(2,4-Dichloro-phenylcarbamoyl)-1-methyl-2-oxo-2,3-dihydro-1H-indol-4-yl]-acrylic acid], the IC50 fell in the range of 1000 to 10000 nM.

Take `CC12CCCC(/C=C/C(=O)O)=C1N(Cc1ccc(Cl)c(Cl)c1)C(=O)C2` (stereo not shown) [Compound A34, (E)-3-[1-(3,4-Dichloro-benzyl)-3a-methyl-2-oxo-2,3,3a,4,5,6-hexahydro-1H-indol-7-yl]-acrylic acid]: the half-maximal inhibitory concentration (IC50) was below 1000 nM.

As to `CC12CCCC(/C=C/C(=O)O)=C1N(Cc1cccc(Cl)c1)C(=O)C2` (stereo not shown) [Compound A35, (E)-3-[1-(3-Chloro-benzyl)-3a-methyl-2-oxo-2,3,3a,4,5,6-hexahydro-1H-indol-7-yl]-acrylic acid], the IC50 fell in the range of 1000 to 10000 nM.

Consider `CC12CCCC(/C=C/C(=O)O)=C1N(Cc1cccc(Cl)c1Cl)C(=O)C2` (stereo not shown) [Compound A36, (E)-3-[1-(2,3-Dichloro-benzyl)-3a-methyl-2-oxo-2,3,3a,4,5,6-hexahydro-1H-indol-7-yl]-acrylic acid], for which the IC50 is 1000 to 10000 nM.

Take `Cn1cc(/C=C/C(=O)O)c2c(Oc3ccc(F)cc3F)cccc21` [Compound A37, (E)-3-[4-(2,4-Difluoro-phenoxy)-1-methyl-1H-indol-3-yl]-acrylic acid]: the IC50 was below 1000 nM.

As for `Cn1cc(/C=C/C(=O)O)c2c(Oc3ccc(F)c(Cl)c3)cccc21` [Compound A38, (E)-3-[4-(3-Chloro-4-fluoro-phenoxy)-1-methyl-1H-indol-3-yl]-acrylic acid], the IC50 was 1000 to 10000 nM.

Take `Cn1cc(/C=C/C(=O)O)c2c(Oc3ccc(Cl)c(Cl)c3)cccc21` [Compound A39, (E)-3-[4-(3,4-Dichloro-phenoxy)-1-methyl-1H-indol-3-yl]-acrylic acid]: the IC50 is 1000 to 10000 nM.

As to `Cn1cc(/C=C/C(=O)O)c2c(Oc3ccc(Cl)cc3Cl)cccc21` [Compound A40, (E)-3-[4-(2,4-Dichloro-phenoxy)-1-methyl-1H-indol-3-yl]-acrylic acid], the IC50 was below 1000 nM.

For the origin of these results see patent US7714017B2, “Carboxylic acid peri-substituted bicyclics for occlusive artery disease” (Decode Genetics, EHF, priority 2004, dated 2010).
